Like-named read-outs stand apart in the source and are kept apart here. No end group written: not given here.
Tests used:
DFT1 1426 cells [1] = type: cell-based, Tasmanian devil (Sarcophilus harrisii); settings: for effect on cell viability (in words) / cell viability (% of untreated growth control): 500 µg/mL; for effect on cell viability (in words): 12-36 h; for concentration toxic to DFT1 1426 cells: summary in the discussion; for decrease in cell viability compared to the growth control: alamarBlue, quadruplicate; for cell viability (% of untreated growth control): after 18 h, mean of quadruplicate
Protocol: The DFT1 cell line 1426, derived from a primary DFT1 tumour, was obtained from Menzies Institute for Medical Research, University of Tasmania. The cell line was maintained in RPMI 1640 media with 2 mM L-glutamine (Gibco) supplemented with 10% AmnioMax II (Gibco), 10% heat-inactivated foetal bovine serum (FBS) and 1% penicillin/streptomycin (Sigma-Aldrich), in T75 flasks (Nunc) at 35 °C 5% CO2. Cells were passaged using trypsin–EDTA (Sigma-Aldrich) when 90% confluent.
Toxicity of seven Tasmanian devil cathelicidins against DFT1 1426 cells was determined for twofold dilutions from 500 to 15.62 µg/mL, and four different timepoints (12, 18, 24 and 36 h). Confluent DFT1 1426 cells (passage 22) were re-suspended in RPMI 1640 with 10% FBS and 10% AmnioMax II at a concentration of 5 × 10^5 cells/mL, and 100μL seeded into each well of a sterile flat-bottom 96 well plate (Corning), with individual plates for each timepoint (12, 18, 24 and 36 h). All plates were incubated for 24 h at 35 °C 5% CO2 prior to the cytotoxicity test.
At 0 h, 100 μL of each peptide dilution was then added to each plate in quadruplicate for all timepoints (12, 18, 24 and 36 h), resulting in a final peptide concentrations of 500 μg/mL, 250 μg/mL, 125 μg/mL, 62.50 μg/mL, 31.25 μg/mL and 15.62 μg/mL. […] An untreated growth control of RPMI 1640, a positive control of dimethylsulfoxide (DMSO) (15%) and sterility control of RPMI 1640 only (no cells) were also included for each time point.
For the 12 h timepoint, 10% alamarBlue was immediately added to each well of the plate after addition of the peptide. For the remaining timepoints, plates were incubated for an additional 6, 12 or 24 h after addition of the peptides, then 10% alamarBlue added to each well. For all timepoints, after the addition of alamarBlue cells were incubated for a further 12 h, resulting in a total peptide incubation period of 12, 18, 24 and 36 h. Absorbance of alamarBlue for all timepoints was determined at 570 nm and 630 nm on a Biotek 800 TS microplate reader. Cell viability was calculated according to manufacturer’s instructions and expressed as a percentage of cell survival compared to the untreated growth control.
A one-sample, one-tailed t-test was used to test for significant difference in viability between treated cells and the negative growth control. A one sample, two-tailed t-test was also conducted to ensure there was no significant difference in viability between the negative growth control and the cells treated with the solvent only. Statistical analysis was conducted in R (R Development Core Team 2021).

DFT1 1426 cells [2] = assay: RNAseq differential gene expression in peptide-treated DFT1 1426 cells; type: cell-based, Tasmanian devil (Sarcophilus harrisii); settings: 500 μg/mL, 10 h, n = 3, vs vehicle control; for percentage of DE genes: of 15,548 genes; for Fold change, gene IL6: cytokine; for Fold change, gene MYD88: immune signaling; for Fold change, gene RUNX1: transcription factor
Protocol: RNAseq was used to characterize the mechanisms underlying the anticancer activity of the peptides. Confluent DFT1 1426 cells (passage number 25) were re-suspended at a concentration of 5 × 10^5 cells/ml and 1 mL seeded into each well of a sterile flat-bottom polystyrene 12-well plate (Corning). Following incubation for 24 h at 35 °C 5% CO2, media was aspirated from the cells and replaced with 500 μL of RPMI 1640 with 2 mM L-glutamine, 10% FBS and 10% AmnioMax II. 500 μL of each 1 mg/mL peptide solution (Saha-CATH1 to 7) was then added to the plate in triplicate, to give a final peptide concentration of 500 μg/mL. […] A vehicle control was also added to the plate in triplicate.
The plate was then incubated for a further 10 h at 35 °C in 5% CO2. This incubation period was selected as the cytotoxicity assay indicated it was sublethal for most of the peptides and would maintain sufficient cell viability to extract intact RNA. Media was then aspirated from the cells, which were washed twice with Dulbecco’s phosphate buffered saline (DPBS) (Sigma-Aldrich).
Total RNA was extracted from each replicate of the peptide-treated and vehicle control cells (n = 3) using the RNeasy mini kit (Qiagen) with cell lysis directly in each well of the 12 well plate. Total RNA was quality assessed using the RNA nano 6000 kit on the Agilent Bioanalyzer with all samples displaying a RIN score between 5 and 9. In total, 24 RNA samples corresponding to three treatments per peptide (Saha-CATH1 to 7) and a vehicle control were submitted to Ramaciotti Centre for Genomics (The University of New South Wales) for sequencing. Illumina TruSeq mRNA libraries were prepared for all samples, which were sequenced as 2 × 150 bp paired-end reads across an SP flowcell on the NovaSeq6000.
Raw reads were quality assessed using FastQC v0.11.8[47], then quality and length trimmed using Trimmomatic v0.39[48] using default parameters. Trimmed reads for each treatment (n = 3) and the control (n = 3) were aligned to the Tasmanian devil reference genome v7.0 (NCBI: GCA_000189315.1[49] using STAR v2.7.8a[50]. Alignments for each treatment were summarized into gene counts using featureCounts in the subread package v1.5.1[51].
Gene counts were used as input for differential expression analysis in R[52]. Genes with less than 50 counts across all samples were removed from the analysis, as these were unlikely to be biologically relevant and lacked sufficient statistical power. Firstly, the data was normalized by trimmed mean of M values (TMM) using edgeR v3.32.1[53] to account for any composition bias between libraries and to give an effective library size for downstream analysis. Multidimensional scaling (MDS) was used to check for variation between treatments using limma v3.36.0[54]. Expression levels were then normalized using upper-quartile normalization in EDAseq v2.24.0[55] to account for differences in distribution between lanes, such as sequencing depth. Differential expression analysis was performed using voom in the limma v3.36.0 package.
(§1) Over-representation analysis of Biological Processes was conducted in clusterProfiler v3.18.1[57]. Statistical significance was adjusted for multiple comparisons using the Benjamini–Hochberg method, and terms were considered significant when p-adj < 0.05. To remove general terms, gene sets larger than 200 were removed, and the simplify function was used to remove redundant GO terms. Further pathway analysis was conducted in IPA (Qiagen)[58], using mammal as the species type and nervous system for the tissue/cell type.

human cell line A549 = settings: cited from earlier work; for cell survival of human cell line A549: 500 µg/mL
Protocol: Here we aimed to identify cathelicidin candidates for future development as anti-DFTD therapeutics. Four Tasmanian devil cathelicidins (Saha-CATH3, 4, 5 and 6) were toxic to DFT1 1426 cells at high concentrations: Saha-CATH3 at concentrations ≥ 62.5 µg/mL; Saha-CATH4 at 500 µg/mL; Saha-CATH5 at concentrations ≥ 125 µg/mL and Saha-CATH6 at concentrations ≥ 250 µg/mL. Previous studies have shown that two of these peptides (Saha-CATH3 and 4) are non-toxic to human cell line A549[44]. The other two (Saha-CATH5 and 6) reduced cell viability at high concentrations (500 µg/mL), resulting in 42% and 5 ...

DFT1 1426 cells [3] = assay: Ingenuity Pathway Analysis (canonical pathways) of DE genes in treated DFT1 1426 cells; type: cell-based, Tasmanian devil (Sarcophilus harrisii); settings: DE genes of cells treated with 500 μg/mL for 10 h
Protocol: as §1

human red blood cells = settings: human red blood cells; cited from earlier work
Text: Cathelicidins have been isolated from many vertebrate taxa[34]–[37]. However, they have undergone gene expansion in marsupials due to the need for additional protection of immunologically naïve young during development in the pouch. […] During development within the pouch, young are exposed to diverse microbial flora, some of which are pathogenic. This has likely encouraged the lineage-specific expansion of cathelicidins in marsupials, resulting in mult ...

[4] = pre-replication complex, RNAseq
[5] = 500 μg/mL, 36 h, DFT1 1426 cells

## GIKHILFMAKTKLPRATCTAEIKENCDRKK [Saha-CATH1, Tasmanian devil cathelicidin mature peptide, synthesized by ChinaPeptides Co. Ltd to 95% purity]
DFT1 1426 cells [1]; DFT1 1426 cells
  effect on cell viability (in words): did not reduce cell viability
DFT1 1426 cells [2]
  percentage of DE genes: less than 1%

## KREDFLDQIIRDFRNFIYQKYRRLRDEFRKLRDILSG [Saha-CATH4, Tasmanian devil cathelicidin mature peptide, synthesized by ChinaPeptides Co. Ltd to 95% purity]
DFT1 1426 cells [1]
  concentration toxic to DFT1 1426 cells: 500 µg/mL
Human cell line A549
  toxicity to human cell line A549 (in words): non-toxic
DFT1 1426 cells [2]; G1-S phase transition, RNAseq
  Fold change, gene CCND3: 0.35
  Fold change, gene CCNE1: 0.44
  Fold change, gene CCNE2: 0.31
DFT1 1426 cells [2]; cyclin transcription factor, RNAseq
  Fold change, gene E2F2: 0.28
DFT1 1426 cells [2]; cytokine receptor, RNAseq
  Fold change, gene IL6R: 5.25
DFT1 1426 cells [2]; RNAseq
  Fold change, gene IL6: 3.73
  Fold change, gene MYD88: 4.15
  Fold change, gene RUNX1: 2.43
DFT1 1426 cells [2]
  percentage of DE genes: 18.75%
DFT1 1426 cells [2]; [4]
  Fold change, gene CDC6: 0.29
  Fold change, gene CDC7: 0.38
  Fold change, gene ORC1: 0.46
DFT1 1426 cells [3]
  IPA z-score, Cyclins and Cell Cycle Regulation: -3.317
  IPA z-score, Th17 activation pathway: 3.317
  IPA z-score, cell cycle control of chromosomal replication: -3.638

## KRIRFFERIRDRLRDLGNRIKNRIRDFFS [Saha-CATH6]
DFT1 1426 cells [1]; [5]
  decrease in cell viability compared to the growth control: more than 50%
DFT1 1426 cells [1]; 500 μg/mL, DFT1 1426 cells
  incubation period required before exhibiting a similar level of toxicity to Saha-CATH5: 18 h
DFT1 1426 cells [1]
  cell viability (% of untreated growth control): 0%
  concentration toxic to DFT1 1426 cells: ≥ 250 µg/mL
DFT1 1426 cells [1]; 18 h
  cytotoxic concentration (cell viability reduced by more than 50%): ≥ 250 µg/mL
Human red blood cells
  concentration at which moderately haemolytic: above 250 μg/mL
Human cell line A549
  cell survival of human cell line A549: 59%
DFT1 1426 cells [2]; RNAseq
  Fold change (FC), ATF3: 5.02
  Fold change (FC), CHOP (DDIT3): 1.91
  Fold change (FC), GADD34 (PPP1R15A): 2.14
  Fold change, gene IL6: 11.14
  Fold change, gene MYD88: 1.78
  Fold change, gene RUNX1: 1.61
DFT1 1426 cells [2]; cytokine receptor, RNAseq
  Fold change, gene IL1R1: 2.29
  Fold change, gene IL6R: 1.70
  Fold change, gene IL21R: 1.58
DFT1 1426 cells [2]
  percentage of DE genes: 15.56%
DFT1 1426 cells [3]
  IPA z-score, EIF2 signaling: 4.352
  IPA z-score, Th17 activation pathway: 2.53

## KRIGLGGLIGRILDRLRRLG [Saha-CATH5]
DFT1 1426 cells [1]; [5]
  decrease in cell viability compared to the growth control: more than 50%
DFT1 1426 cells [1]
  cell viability (% of untreated growth control): 0%
  concentration toxic to DFT1 1426 cells: ≥ 125 µg/mL
DFT1 1426 cells [1]; 36 h
  cytotoxic concentration (cell viability reduced by more than 50%): ≥ 125 µg/mL
Human red blood cells
  concentration at which moderately haemolytic: above 250 μg/mL
Human cell line A549
  cell survival of human cell line A549: 42%
DFT1 1426 cells [2]; RNAseq
  Fold change (FC), gene ERBB3: 0.34
DFT1 1426 cells [2]; G1-S phase transition, RNAseq
  Fold change, gene CCND1: 0.52
  Fold change, gene CCNE1: 0.37
  Fold change, gene CCNE2: 0.30
DFT1 1426 cells [2]
  percentage of DE genes: 74.05%
DFT1 1426 cells [2]; [4]
  Fold change, gene CDC6: 0.39
  Fold change, gene CDC45: 0.42
  Fold change, gene ORC1: 0.54
DFT1 1426 cells [3]
  IPA z-score, ERBB2-ERBB3: -4.439
  IPA z-score, ERBB4 signaling: -5.425
  IPA z-score, ERBB signaling: -6.068
  IPA z-score, Hippo signalling: 0.898
  IPA z-score, cell cycle control of chromosomal replication: -3.780

## STILEDPGKIRERRDIGEEPIQKKQKMYRDQMQ [Saha-CATH7, Tasmanian devil cathelicidin mature peptide, synthesized by ChinaPeptides Co. Ltd to 95% purity]
DFT1 1426 cells [1]; DFT1 1426 cells
  effect on cell viability (in words): did not reduce cell viability
DFT1 1426 cells [2]
  percentage of DE genes: less than 1%
DFT1 1426 cells [2]; out of a total of 15,548 genes
  number of differentially expressed (DE) genes: 0

## TFKRKNGSRKNGHRPGGYSLIALGNKKVLKAPYMESI [Saha-CATH2, Tasmanian devil cathelicidin mature peptide, synthesized by ChinaPeptides Co. Ltd to 95% purity]
DFT1 1426 cells [1]; DFT1 1426 cells
  effect on cell viability (in words): did not reduce cell viability
DFT1 1426 cells [2]
  percentage of DE genes: less than 1%
